Measured values: US12428406B2 (PMV Pharmaceuticals, Inc., priority 2019, dated 2025)

molecular target: T1, p53 Y220C (Homo sapiens, UniProt P04637, Y220C); test: In vitro DNA binding activity assay (HTRF / TR-FRET): stabilization of p53 Y220C and increase of its DNA binding activity; assay type: biochemical; details: recombinant His-tagged p53 Y220C DNA binding domain (aa 94-312), biotin-labeled consensus DNA, incubated at 27° C. or 29° C. for 60 min
T1 construct: The recombinant protein was a truncation mutant containing only amino acids 94-312 of p53; made in house; host or cells: E. coli
T1 sequence (P04637 94-312, change not shown): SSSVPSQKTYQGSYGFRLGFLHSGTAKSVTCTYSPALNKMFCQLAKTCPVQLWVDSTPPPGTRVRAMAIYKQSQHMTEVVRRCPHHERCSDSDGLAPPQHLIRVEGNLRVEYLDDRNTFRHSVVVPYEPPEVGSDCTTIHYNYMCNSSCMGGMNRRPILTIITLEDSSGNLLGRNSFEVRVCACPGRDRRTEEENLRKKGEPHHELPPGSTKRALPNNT
Procedure, shortened: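 Compounds from 4.5 mM DMSO stocks, 3-fold serial dilutions; room-temperature incubations of 15 and 20 min. SC150 = concentration raising DNA binding by 50% over no-compound control.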

Row | Structure (SMILES) | SC150 (concentration of the compound required to increase the DNA binding activity by 50%)
1 | COc1cc(S(C)(=O)=O)ccc1NCC#Cc1cc2c(N[C@H]3CCN(C(=O)CN(C)C)C[C@H]3F)cccc2n1CC(F)(F)F [Compound 856A, 2-(dimethylamino)-1-[(3R,4S)-3-fluoro-4-[(2-{3-[(4-methanesulfonyl-2-methoxyphenyl)amino]prop-1-yn-1-yl}-1-(2,2,2-trifluoroethyl)-1H-indol-4-yl)amino]piperidin-1-yl]ethan-1-one] | + (+ = 0 μM ≤ SC150 < 0.05 μM)
2 | COCCNC(=O)c1ccc(NCC#Cc2cc3c(N[C@H]4CCN(C)C[C@H]4F)cccc3n2CC(F)(F)F)c(OC)c1 (racemic) [Compound 814A, rac-4-{[3-(4-{[(3R,4S)-3-fluoro-1-methylpiperidin-4-yl]amino}-1-(2,2,2-trifluoroethyl)-1H-indol-2-yl)prop-2-yn-1-yl]amino}-3-methoxy-N-(2-methoxyethyl)benzamide] | + (+ = 0 μM ≤ SC150 < 0.05 μM)
3 | CCOC(=O)c1ccc(NCC#Cc2cc3c(N[C@H]4CCN(C(C)C)C[C@H]4F)cccc3n2CC(F)(F)F)c(OC)c1 (racemic) [Compound 797A, ethyl 4-((3-(4-(((3R,4S)-3-fluoro-1-isopropylpiperidin-4-yl)amino)-1-(2,2,2-trifluoroethyl)-1H-indol-2-yl)prop-2-yn-1-yl)amino)-3-methoxybenzoate] | + (+ = 0 μM ≤ SC150 < 0.05 μM)
4 | COc1cc(S(=O)(=O)N2CCOCC2)ccc1NCC#Cc1cc2c(NC3CCN(C(C)=O)CC3)cccc2n1CC(F)(F)F [Compound 758A, 1-(4-{1[2-(3-{1[2-methoxy-4-(morpholine-4-sulfonyl)phenyl]amino}prop-1-yn-1-yl)-1-(2,2,2-trifluoroethyl)-1H-indol-4-yl]amino}piperidin-1-yl)ethan-1-one] | + (+ = 0 μM ≤ SC150 < 0.05 μM)
5 | CCN1CC[C@H](Nc2cccc3c2cc(C#CCNc2ccc(C(=O)O)cc2OC)n3CC(F)(F)F)[C@H](F)C1 (racemic) [Compound 958A, 4-((3-(4-(((3R,4S)-1-ethyl-3-fluoropiperidin-4-yl)amino)-1-(2,2,2-trifluoroethyl)-1H-indol-2-yl)prop-2-yn-1-yl)amino)-3-methoxybenzoic acid] | + (+ = 0 μM ≤ SC150 < 0.05 μM)
6 | CCNC(=O)c1ccc(NCC#Cc2cc3c(NC4CCN(CC(O)COC)CC4)cccc3n2CC(F)(F)F)c(OC)c1 (stereo not drawn) [Compound 655A, N-ethyl-4-{[3-(4-{[1-(2-hydroxy-3-methoxypropyl)piperidin-4-yl]amino}-1-(2,2,2-trifluoroethyl)-1H-indol-2-yl)prop-2-yn-1-yl]amino}-3-methoxybenzamide] | + (+ = 0 μM ≤ SC150 < 0.05 μM)
7 | COC[C@@H](O)CN1CCC(Nc2cccc3c2cc(C#CCNc2ccc(S(C)(=O)=O)cc2OC)n3CC(F)(F)F)CC1 [Compound 612A, (2S)-1-{4-[(2-{3-[(4-methanesulfonyl-2-methoxyphenyl)amino]prop-1-yn-1-yl}-1-(2,2,2-trifluoroethyl)-1H-indol-4-yl)amino]piperidin-1-yl}-3-methoxypropan-2-ol] | + (+ = 0 μM ≤ SC150 < 0.05 μM)
8 | N#CCOc1cc(S(N)(=O)=O)ccc1NCC#Cc1cc2c(N[C@H]3CC[C@H](N4CC5(CCOCC5)C4)CC3)cccc2n1CC(F)(F)F [Compound 299A, 3-(cyanomethoxy)-4-{[3-(4-{[(1R,4R)-4-{7-oxa-2-azaspiro[3.5]nonan-2-yl}cyclo-hexyl]amino}-1-(2,2,2-trifluoroethyl)-1H-indol-2-yl)prop-2-yn-1-yl]amino}benzene-1-sulfonamide] | + (+ = 0 μM ≤ SC150 < 0.05 μM)
9 | COc1cc(S(C)(=O)=O)ccc1NCC#Cc1cc2c(N[C@H]3CC[C@H](N4CC5(CCCOC5)C4)CC3)cccc2n1CC(F)(F)F [Compound 322A, 2-{3-[(4-methane-sulfonyl-2-methoxy-phenyl)amino]prop-1-yn-1-yl}-N-[(1R,4R)-4-{6-oxa-2-azaspiro[3.5]nonan-2-yl}cyclohexyl]-1-(2,2,2-trifluoroethyl)-1H-indol-4-amine] | + (+ = 0 μM ≤ SC150 < 0.05 μM)
10 | COc1cc(NC2CCOCC2)c2cc(C#CCNc3ccc(S(N)(=O)=O)cc3OC)n(CC(F)(F)F)c2c1 [Compound 1013A, 3-methoxy-4-[(3-{6-methoxy-4-[(oxan-4-yl)amino]-1-(2,2,2-trifluoroethyl)-1H-indol-2-yl}prop-2-yn-1-yl)amino]benzene-1-sulfonamide] | +++ (+++ = 0.1 μM ≤ SC150 < 0.2 μM)
11 | COCCN(C)[C@H]1CC[C@H](Nc2cccc3c2cc(C#CCNc2ccc(S(C)(=O)=O)cc2OCF)n3CC(F)(F)F)CC1 [Compound 155A, (1R,4R)—N^1-(2-(3-((2-(fluoromethoxy)-4-(methylsulfonyl)phenyl)amino)prop-1-yn-1-yl)-1-(2,2,2-trifluoroethyl)-1H-indol-4-yl)-N^4-(2-methoxyethyl)-N^4-methylcyclohexane-1,4-diamine] | + (+ = 0 μM ≤ SC150 < 0.05 μM)
12 | COC(=O)[C@H](CCC(N)=O)NC(=O)c1ccc(NCC#Cc2cc3c(N[C@@H]4CCN(C)C[C@@H]4F)cccc3n2CC(F)(F)F)c(OC)c1 [Compound 956A, methyl (2S)-4-carbamoyl-2-[(4-{[3-(4-{[(3S,4R)-3-fluoro-1-methylpiperidin-4-yl]amino}-1-(2,2,2-trifluoroethyl)-1H-indol-2-yl)prop-2-yn-1-yl]amino}-3-methoxyphenyl)formamido]butanoate] | + (+ = 0 μM ≤ SC150 < 0.05 μM)
13 | CCC(=O)NS(=O)(=O)c1ccc(NCC#Cc2cc3c(N[C@H]4CC[C@H](N(C)C)CC4)cccc3n2CC(F)(F)F)c(OC)c1 [Compound 85A, N-(3-methoxy-4-{[3-(4-{[(1R,4R)-4-(dimethylamino)cyclohexyl]amino}-1-(2,2,2-trifluoroethyl)-1H-indol-2-yl)prop-2-yn-1-yl]amino}benzenesulfonyl)propanamide] | + (+ = 0 μM ≤ SC150 < 0.05 μM)
14 | COc1cc(C(C)(C)C#N)ncc1NCC#Cc1cc2c(NC3CCN(C)CC3)cccc2n1CC(F)(F)F [Compound 468A, 2-{4-methoxy-5-[(3-{4-[(1-methylpiperidin-4-yl)amino]-1-(2,2,2-trifluoroethyl)-1H-indol-2-yl}prop-2-yn-1-yl)amino]pyridin-2-yl}-2-methylpropanenitrile] | + (+ = 0 μM ≤ SC150 < 0.05 μM)
15 | COc1cc(S(=O)(=O)NC(C)=O)ccc1NCC#Cc1cc2c(N[C@H]3CC[C@H](N(C)C)CC3)cccc2n1CC(F)(F)F [Compound 83A, N-(3-methoxy-4-{[3-(4-{[(1R,4R)-4-(dimethylamino)cyclohexyl]amino}-1-(2,2,2-trifluoroethyl)-1H-indol-2-yl)prop-2-yn-1-yl]amino}benzenesulfonyl)acetamide] | + (+ = 0 μM ≤ SC150 < 0.05 μM)
16 | COc1cc(S(N)(=O)=O)ccc1NCC#Cc1cc2c(N[C@H]3CC[C@@H](N4CC5CC(C4)O5)CC3)cccc2n1CC(F)(F)F [Compound 401A, 3-methoxy-4-{[3-(4-{[(1S,4S)-4-{6-oxa-3-azabicyclo[3.1.1]heptan-3-yl}cyclohexyl]amino}-1-(2,2,2-trifluoroethyl)-1H-indol-2-yl)prop-2-yn-1-yl]amino}benzene-1-sulfonamide] | ++ (++ = 0.05 μM ≤ SC150 < 0.1 μM)
17 | CN1CCC(Nc2cccc3c2cc(C#CCOc2ccc(S(C)(=O)=O)cc2N(C)C)n3CC(F)(F)F)CC1 [Compound 488A, 2-{3-[2-(dimethylamino)-4-methanesulfonylphenoxy]prop-1-yn-1-yl}-N-(1-methylpiperidin-4-yl)-1-(2,2,2-trifluoroethyl)-1H-indol-4-amine] | +++ (+++ = 0.1 μM ≤ SC150 < 0.2 μM)
18 | COCC(O)CN1CCC(Nc2cccc3c2cc(C#CCNc2ccc(S(C)(=O)=O)cc2OC)n3CC#N)CC1 (stereo not drawn) [Compound 699A, 2-(4-{[1-(2-hydroxy-3-methoxypropyl)piperidin-4-yl]amino}-2-{3-[(4-methanesulfonyl-2-methoxyphenyl)amino]prop-1-yn-1-yl}-1H-indol-1-yl)acetonitrile] | + (+ = 0 μM ≤ SC150 < 0.05 μM)
19 | COCC(O)CN1CCC(Nc2cccc3c2cc(C#CCNc2ccc(S(C)(=O)=O)cc2OCCO)n3CC(F)(F)F)CC1 (stereo not drawn) [Compound 644A, 1-(4-{[2-(3-{[2-(2-hydroxyethoxy)-4-methanesulfonylphenyl]amino}prop-1-yn-1-yl)-1-(2,2,2-trifluoroethyl)-1H-indol-4-yl]amino}piperidin-1-yl)-3-methoxypropan-2-ol] | + (+ = 0 μM ≤ SC150 < 0.05 μM)
20 | COc1cc(S(C)(=O)=O)ccc1NCC#Cc1cc2c(N(C)C)cccc2n1CC(F)(F)F [Compound 1A, 2-{3-[(4-methanesulfonyl-2-methoxyphenyl)amino]prop-1-yn-1-yl}-N,N-dimethyl-1-(2,2,2-trifluoroethyl)-1H-indol-4-amine] | +++ (+++ = 0.1 μM ≤ SC150 < 0.2 μM)
21 | COc1cc(S(C)(=O)=O)ccc1NCC#Cc1cc2c(NC3CCN(CC(O)COCC(O)CO)CC3)cccc2n1CC(F)(F)F (stereo not drawn) [Compound 669A, 3-(2-hydroxy-3-{4-[(2-{3-[(4-methanesulfonyl-2-methoxyphenyl)amino]prop-1-yn-1-yl}-1-(2,2,2-trifluoroethyl)-1H-indol-4-yl)amino]piperidin-1-yl}propoxy)propane-1,2-diol] | + (+ = 0 μM ≤ SC150 < 0.05 μM)
